The target in series [1] is Thymidylate synthase (Homo sapiens) (UniProt P04818). In words: Binding affinity to thymidylate synthase assessed as change in UV-Vis spectra at 10 uM in HEPES buffer at pH 7.2 by UV-Visible spectroscopy.
Series [2] addresses T1, Dihydrofolate reductase (Homo sapiens) (UniProt P00374).
T1 sequence (whole entry): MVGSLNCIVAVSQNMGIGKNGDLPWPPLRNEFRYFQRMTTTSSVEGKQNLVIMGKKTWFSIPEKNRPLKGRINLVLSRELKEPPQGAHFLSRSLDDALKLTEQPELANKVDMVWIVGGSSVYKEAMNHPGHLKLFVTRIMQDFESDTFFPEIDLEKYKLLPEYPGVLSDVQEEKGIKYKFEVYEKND
In words: Binding affinity to DHFR at 32 mM by [1H]NMR spectroscopy.

The target in series [3] is T1, Dihydrofolate reductase (Homo sapiens). In words: Binding affinity to DHFR assessed as change in UV-Vis spectra at 10 uM in HEPES buffer at pH 7.2 by UV-Visible spectroscopy.
The nature of series [4]: (§1) Growth inhibition of human NCI60 cells incubated for 48 hrs by SRB assay. The series is classed as functional. As to conditions: NCI60, 48 h.
Series [5] can be described thus: Total tumor growth inhibition of human NCI60 cells incubated for 48 hrs by SRB assay. The series is classed as functional. As to conditions: NCI60, 48 h.
Series [6] in a line: Toxicity against human NCI60 cells incubated for 48 hrs by SRB assay. The series is classed as cell-based. As to conditions: nci60, 48 h.
A short description of series [7]: Therapeutic index, ratio of LC50 for human NCI60 cells to GI50 for human NCI60 cells. The series is classed as cell-based. As to conditions: read-out: TI.
For series [8], the target named is T1, Dihydrofolate reductase (Homo sapiens).
Description: Inhibition of DHFR reduction in conversion of DHF to THF in presence of NADPH by DHFR assay
Series [9] deals with Thymidine phosphorylase (Homo sapiens) (UniProt P19971). In words: Binding affinity to […] assessed as change in UV-Vis spectra at 10 uM in HEPES buffer at pH 7.2 by UV-Visible spectroscopy.
For series [10], the target named is T1, Dihydrofolate reductase (Homo sapiens). Kind of series: Binding affinity to DHFR by [1H]NMR spectroscopy.
The subject of the next series is NCI60. Described as §1. It counts as functional.
The subject of a further series is COLO 205. In words: Growth inhibition of human COLO205 cells incubated for 48 hrs by SRB assay. The series is classed as functional. The conditions noted are these: COLO 205, 48 h, pooled result: one value given for 7 cell lines, strains, targets or settings.
The target of series [11] is T1, Dihydrofolate reductase (Homo sapiens). In words: Binding affinity to DHFR at 48 mM by [1H]NMR spectroscopy.
For the next series, the system named is NCI-H522. Kind of series: Growth inhibition of human NCI-H522 cells incubated for 48 hrs by SRB assay. The series is classed as functional. The conditions noted are these: NCI-H522, 48 h.
In a further series the test system is UACC-257. Kind of series: Growth inhibition of human UACC257 cells incubated for 48 hrs by SRB assay. The series is classed as functional. The conditions noted are these: UACC-257, 48 h.
The test system of a further series is OVCAR-3. Kind of series: Growth inhibition of human OVCAR3 cells incubated for 48 hrs by SRB assay. The series is classed as functional. The conditions noted are these: OVCAR-3, 48 h.
A further series relates to A498. In words: Growth inhibition of human A498 cells incubated for 48 hrs by SRB assay. The conditions noted are these: A498, 48 h. It counts as functional.
Another series concerns MCF7. In words: Growth inhibition of human MCF7 cells incubated for 48 hrs by SRB assay. It counts as functional. As to conditions: MCF7, 48 h.
The next series concerns Hs-578T. In words: Growth inhibition of human Hs578T cells incubated for 48 hrs by SRB assay. The series is classed as functional.
For a further series, the system named is MDA-MB-468. Kind of series: Growth inhibition of human MDA-MB-468 cells incubated for 48 hrs by SRB assay. The series is classed as functional. As to conditions: MDA-MB-468, 48 h.
For series [12], the target named is T1, Dihydrofolate reductase (Homo sapiens). In words: Inhibition of DHFR reduction in conversion of DHF to THF at 100 nM in presence of NADPH by DHFR assay.
Series [13] shares this target. Kind of series: Inhibition of DHFR reduction in conversion of DHF to THF at 1 uM in presence of NADPH by DHFR assay.
Series [14] has the same target. In words: Inhibition of DHFR reduction in conversion of DHF to THF at 10 uM in presence of NADPH by DHFR assay.
Series [15] has the same target. Kind of series: Inhibition of DHFR reduction in conversion of DHF to THF at 100 uM in presence of NADPH by DHFR assay.
For series [16] the target is unchanged. In words: Inhibition of DHFR reduction in conversion of DHF to THF at 10 nM in presence of NADPH by DHFR assay.
Another series relates to SR. In words: Growth inhibition of human SR cells incubated for 48 hrs by SRB assay. The series is classed as functional.
A short description of the next series: cells. The conditions noted are these: Homo sapiens, NCI60, 48 h.

Calls of active or inactive are those of the source. The rule behind the calls is not given here.

Sequence of Thymidylate synthase (Homo sapiens) (P04818 2-313 limits assumed): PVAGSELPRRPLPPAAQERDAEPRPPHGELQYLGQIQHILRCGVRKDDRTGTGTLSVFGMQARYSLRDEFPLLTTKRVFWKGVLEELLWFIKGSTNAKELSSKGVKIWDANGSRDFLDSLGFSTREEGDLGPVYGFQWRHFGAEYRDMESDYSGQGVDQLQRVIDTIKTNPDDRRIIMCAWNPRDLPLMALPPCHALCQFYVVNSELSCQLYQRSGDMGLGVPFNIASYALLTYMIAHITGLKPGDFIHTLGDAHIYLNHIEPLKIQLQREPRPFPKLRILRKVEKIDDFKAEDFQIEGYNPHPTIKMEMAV
Sequence of Thymidine phosphorylase (Homo sapiens) (P19971 whole entry, looked up): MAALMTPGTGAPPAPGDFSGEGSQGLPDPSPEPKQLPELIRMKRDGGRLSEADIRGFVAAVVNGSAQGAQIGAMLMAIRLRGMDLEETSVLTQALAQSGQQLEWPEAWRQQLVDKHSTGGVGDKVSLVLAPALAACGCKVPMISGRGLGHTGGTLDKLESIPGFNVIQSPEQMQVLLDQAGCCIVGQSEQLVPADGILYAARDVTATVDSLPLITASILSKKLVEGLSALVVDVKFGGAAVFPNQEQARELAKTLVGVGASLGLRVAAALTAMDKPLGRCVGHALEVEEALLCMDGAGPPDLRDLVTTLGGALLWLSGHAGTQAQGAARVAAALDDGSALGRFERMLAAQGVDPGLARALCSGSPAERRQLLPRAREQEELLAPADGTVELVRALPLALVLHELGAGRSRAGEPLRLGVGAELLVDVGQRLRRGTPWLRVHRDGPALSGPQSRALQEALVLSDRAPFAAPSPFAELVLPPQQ

In the case of `COc1cc(/C=C2\C(=O)N(c3c(Cl)cccc3Cl)c3ccccc32)cc(OC)c1O`, the result in series [1] and in series [9] was inactive. Also, in [2], the result was Active. In addition, the K in [3] turned out to be 1.6 ×10⁷ /M. This compound had a GI50 in [4] of 1500 nM. Besides, the TGI in [5] turned out to be 19400 nM. Besides, the LC50 in series [6] was 61600 nM. Also, the selectivity ratio in series [7] came out at 41.1. The 80% effect level in [8] (IC80) was put at 10000 nM.

As to `O=C1/C(=C\c2cn(CC(O)CN3CCCCC3)c3ccccc23)c2ccccc2N1c1c(Cl)cccc1Cl` (centres undefined), the outcome in series [3] was inactive. In addition, the result in series [10] was Active. Moreover, in [4], the GI50 worked out at 1800 nM. In series [5], this compound yielded a TGI of 3200 nM. In series [6], this compound had an LC50 of 9100 nM. Besides, in [7], the selectivity ratio was found to be 5.1. Moreover, the 80% effect level in series [8] (IC80) was put at 890 nM.

Take `COc1cc(/C=C2\C(=O)N(c3cccc(Cl)c3)N=C2C)cc(OC)c1O`: the result in [3] and in series [10] was inactive. Besides, in the series on NCI60, the “growth inhibition (GI)” value was “inactive”.

Regarding `CC1=NN(c2cccc(Cl)c2)C(=O)/C1=C\c1cn(CC(O)CN2CCCCC2)c2ccccc12` (centres undefined), the values for the GI50 (in the series on COLO 205; in [4]) were 1700 nM and 5500 nM, respectively. Also, the result in [3] was inactive. For the same compound, in series [10], the outcome was Active. Also, the TGI in series [5] turned out to be 16900 nM. In [6], the LC50 amounted to 47800 nM. The selectivity ratio in [7] came out at 18.4. Further, the IC80 in [8] was found to be 1060 nM.

Regarding `COc1cc(C=C2C(=O)N(C)C(=O)N(C)C2=O)cc(OC)c1O`, the result in [3] and in [10] was inactive. In addition, the “growth inhibition (GI)” value in the series with NCI60 is “inactive”.

As to `CC1=NN(c2cccc(Cl)c2)C(=O)/C1=C\c1c[nH]c2ccc(Br)cc12`, the outcome in series [3] was inactive. Also, in series [10], the result was Active. Besides, in [4], the GI50 is 3900 nM. Moreover, the TGI in series [5] was 17700 nM. This compound gave an LC50 in series [6] of 50100 nM. The selectivity ratio in series [7] came out at 12.8.

As to `O=C1/C(=C\c2ccccn2)c2ccccc2N1c1c(Cl)cccc1Cl`, the outcome in series [3] was inactive. Moreover, the outcome in series [10] was Active. Besides, in series [4], the GI50 is 2000 nM. For the same compound, the TGI in series [5] amounted to 9100 nM. This compound also showed an LC50 in series [6] of 27500 nM. In addition, the selectivity ratio in series [7] was determined as 13.7.

Consider `COc1cc(/C=C2\C(=O)Nc3ccccc32)cc(OC)c1O`, for which, in series [11], the result was Active. Also, the outcome in series [1] and in [9] was inactive. The GI50 in the series with NCI-H522, with UACC-257, with OVCAR-3, in the series on A498, with MCF7 and with Hs-578T was 600 nM in each case. The GI50 in the series with MDA-MB-468 is 600 nM; in series [4] it was 3500 nM; in the series with SR it was 600 nM; in the series “cells”, 600 nM. The inhibition in series [12], in series [13], in [14], in [15] and in series [16] was over 90% each time. This compound returned a TGI in series [5] of 21400 nM. The LC50 in series [6] was 72400 nM. Besides, the IC90 in [8] turned out to be 1360 nM.

In turn, `COc1ccc2c(c1)c(CC(=O)O)c(C)n2C(=O)c1ccc(Cl)cc1` [INDOMETHACIN] returned a GI50 in series [4] of 64300 nM.

The values above are taken from ChEMBL document CHEMBL2163263, “Mechanism inspired development of rationally designed dihydrofolate reductase inhibitors as anticancer agents” (J Med Chem, 2012).
